Source: ChEMBL document CHEMBL3046524, “Synthesis and biological evaluation of N 1,N 2-bis-[4-(t-amino)-2-butynyl]phthalamides as oxotremorine and acetylcholine antagonists” (Med Chem Res, 2013)
Active and inactive are the calls of the source. The rule behind the calls is not given here.

Experiments:
[1] = tested on: Mus musculus; test: Antitremor activity in ip dosed Mus musculus (mouse) assessed as concentration required to inhibit oxotremorine-induced tremor effect administered 15 to 20 min prior to oxotremorine challenge measured 15 to 20 min post oxotremorine challenge; format: functional
[2] = tested on: Ileum; test: Ionotropic activity in Cavia porcellus (guinea pig) ileum assessed as concentration required to inhibit acetylcholine-induced contraction after 15 min by physiographic analysis; format: functional
[3] = tested on: Ileum; test: Ionotropic activity in Cavia porcellus (guinea pig) ileum assessed as inhibition of acetylcholine-induced contraction after 15 min by physiographic analysis; format: functional, tissue-based; conditions: 0.25 h, read-out: pA2 (converted)
[4] = tested on: Mus musculus; test: Antitremor activity in ip dosed Mus musculus (mouse) assessed as inhibition of oxotremorine-induced tremor effect administered 15 to 20 min prior to oxotremorine challenge measured 15 to 20 min post oxotremorine challenge; format: functional, organism-based

| SMILES | INH [1] | INH [2] | Kb [3] | inhibition [4] |
| --- | --- | --- | --- | --- |
| O=C(NCC#CCN1CCCCC1)c1ccccc1C(=O)NCC#CCN1CCCCC1 | 8 µmol/kg | 1.6 ×10⁻⁶ mol/L | 2510 nM | – |
| CC1CCCCN1CC#CCNC(=O)c1ccccc1C(=O)NCC#CCN1CCCCC1C (stereo not given) | – | 1.2 ×10⁻⁶ mol/L | 2000 nM | – |
| CC1CCCC(C)N1CC#CCN1C(=O)c2ccccc2C1=O (stereo not given) | – | 2 ×10⁻⁶ mol/L | 2000 nM | inactive |
| O=C(NCC#CCN1CCCCCCC1)c1ccccc1C(=O)NCC#CCN1CCCCCCC1 | – | 5 ×10⁻⁶ mol/L | 1260 nM | – |
| CN1[C@@H]2CC[C@H]1C[C@@H](OC(=O)C(CO)c1ccccc1)C2 (stereo not given in full) [ATROPINE] | 2.8 µmol/kg | 3.7 ×10⁻⁹ mol/L | 3.98 nM | – |
| O=C1c2ccccc2C(=O)N1CC#CCN1CCCCCCC1 | 2.4 µmol/kg | 8 ×10⁻⁷ mol/L | 794 nM | – |
| O=C1c2ccccc2C(=O)N1CC#CCN1CCCCC1 | 7.6 µmol/kg | 1.6 ×10⁻⁶ mol/L | 1580 nM | – |
| CC1CCCC(C)N1CC#CCNC(=O)c1ccccc1C(=O)NCC#CCN1C(C)CCCC1C (stereo not given) | – | 3 ×10⁻⁶ mol/L | 1580 nM | inactive |
| CC1CCCCN1CC#CCN1C(=O)c2ccccc2C1=O (stereo not given) | 9.6 µmol/kg | 1.2 ×10⁻⁶ mol/L | 1260 nM | – |
